Measured values published in PubChem BioAssay (NCI).
Where “and” joins values, the source holds several entries; their conditions need not be identical. Identical values can stand only once.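 Values below derive from 48-hour exposures of cells grown in 96-well plates, with endpoints linearly interpolated between the two concentrations bracketing the appropriate inhibition level. Here, GI50 denotes the concentration required for 50% inhibition of growth. TGI denotes the concentration required for complete inhibition of growth.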

Tests used:
Assay in all cases: DTP human tumour cell line panel, 48 h
SNB-19 CNS = test system: SNB-19 CNS
HS 578T breast = test system: HS 578T breast
M14 melanoma = test system: M14 melanoma
CAKI-1 renal = test system: CAKI-1 renal
RXF 393 renal = test system: RXF 393 renal
HL-60(TB) leukemia = test system: HL-60(TB) leukemia
SR leukemia = test system: SR leukemia
A549 NSCLC = test system: A549 NSCLC
OVCAR-8 ovarian = test system: OVCAR-8 ovarian
RPMI-8226 leukemia = test system: RPMI-8226 leukemia

SMILES | GI50 (SNB-19 CNS) | TGI (SNB-19 CNS) | GI50 (HS 578T breast) | TGI (HS 578T breast) | GI50 (M14 melanoma) | TGI (M14 melanoma) | GI50 (CAKI-1 renal) | TGI (CAKI-1 renal) | GI50 (RXF 393 renal) | TGI (RXF 393 renal) | GI50 (HL-60(TB) leukemia) | TGI (HL-60(TB) leukemia) | GI50 (SR leukemia) [µM] | TGI (SR leukemia) [µM] | GI50 (A549 NSCLC) | TGI (A549 NSCLC) | GI50 (OVCAR-8 ovarian) | TGI (OVCAR-8 ovarian) | GI50 (RPMI-8226 leukemia) [µM] | TGI (RPMI-8226 leukemia) [µM]
O=C(Oc1ccc[nH]c1=O)c1cc([N+](=O)[O-])cc([N+](=O)[O-])c1 | > 100 µM | > 100 µM | > 100 µM | > 100 µM | > 100 µM | > 100 µM | 35.7 µM | > 100 µM | > 100 µM | > 100 µM | 53.6 µM | > 100 µM | 74.8 | > 100 | > 100 µM | > 100 µM | > 100 µM | > 100 µM | > 100 | > 100
O=C(O)c1ccc(CN2CCC(CN[C@@H]3C[C@H]3c3ccccc3)CC2)cc1 | > 100 µM | > 100 µM | > 100 µM | > 100 µM | > 100 µM | > 100 µM | > 100 µM | > 100 µM | > 100 µM | > 100 µM | > 100 µM | > 100 µM | > 100 | > 100 | > 100 µM | > 100 µM | > 100 µM | > 100 µM | > 100 | > 100
CNC(=O)OCc1nc(SSC(C)(C)C)n(C)c1COC(=O)NC |  | 33.9 µM |  | 7.9 µM |  | 4.13 µM |  | 3.94 µM |  | 2.84 µM |  | 2.66 µM |  | 5.54 |  | 28 µM |  | 5.35 µM |  | 8.92
O=C1NC(=S)S/C1=C/c1ccc2c(c1)OCO2 | > 100 µM | > 100 µM | 36.8 µM | > 100 µM | > 100 µM | > 100 µM | > 100 µM | > 100 µM | > 100 µM | > 100 µM | 77.3 µM | > 100 µM | > 100 | > 100 | > 100 µM | > 100 µM | > 100 µM | > 100 µM | > 100 | > 100
Cc1cn(-c2cc(NC(=O)c3cccc(C#Cc4cccc5[nH]nc(N)c45)c3)cc(C(F)(F)F)c2)cn1 | 8.14 µM | 32.7 µM | 2.86 µM | 42.2 µM | 2.48 µM | 17.4 µM | 4.23 µM | 16.6 µM | 5.1 µM | 21.6 µM | 3.22 µM | 32.6 µM | 5.06 | > 100 | 10.4 µM | 35.2 µM | 4.99 µM | 36.3 µM | 4.54 | > 100
Cc1ccc(C)c(NC(=O)CC2Sc3ccccc3NC2=O)c1 (stereo not drawn) |  | 42.1 µM and 63.8 µM |  | > 75.2 µM |  | > 100 µM | 18.9 µM and 45.2 µM | 33.1 µM and 99.1 µM | 6.39 µM and 14 µM | 12.8 µM and 28.4 µM |  | > 100 µM |  | > 100 | 24.9 µM and 70.8 µM | > 100 µM |  | 27 µM and 45.3 µM |  | > 100
CCN(CC)CCCC(CCl)Nc1ccnc2cc(Cl)ccc12 (stereo not drawn) | 94.8 µM and > 89.7 µM | > 100 µM | 17.3 µM and 18.1 µM | 42.5 µM and 44.3 µM | 2.13 µM and 2.39 µM | 4.38 µM and 4.92 µM | 22.1 µM and 16.2 µM | 47.5 µM and 44.8 µM | 4.95 µM and 10.6 µM | 24.5 µM and > 49.1 µM | 15.5 µM and 7.99 µM | 72.8 µM and > 31.6 µM | 0.421 | 3.25 | 20 µM and 27 µM | 55 µM and > 100 µM | 20.2 µM and 19.4 µM | 54.8 µM and 71.3 µM | 12.2 | 34.4
CC1(C)N=C(N)N=C(N)N1c1ccc(CCC(=O)Nc2ccc(S(=O)(=O)F)cc2)c(Cl)c1 | 5.22 µM | > 100 µM | > 84.7 µM | > 100 µM | 0.762 µM | > 100 µM | 7.73 µM | > 81.1 µM | > 45.4 µM | > 100 µM | 0.142 µM | > 100 µM | 0.179 | > 100 | 0.517 µM | > 100 µM | 4.66 µM | > 100 µM | 0.515 | > 100
COCCOC(=O)C1=C(O)c2ccccc2S(=O)(=O)N1C |  | > 100 µM |  | > 100 µM |  | > 100 µM |  | > 100 µM |  | > 100 µM |  | > 100 µM |  | > 100 |  | > 100 µM |  | > 100 µM |  | > 100
O=C1C(=O)c2ccccc2C(O)=C1C(C1=C(O)c2ccccc2C(=O)C1=O)c1ccc(Cl)cc1 |  | 41.8 µM |  | 66.4 µM |  | 23.7 µM |  | 23.8 µM |  | 18.4 µM |  | 4.83 µM |  | 24.7 |  | 42.2 µM |  | 30.1 µM |  | > 39.2
CC(C)C(O)(C(C)C)C(C)C |  | > 100 µM |  | > 100 µM |  | > 100 µM |  | > 100 µM |  | > 100 µM |  | > 100 µM |  | > 100 |  | > 100 µM |  | > 100 µM |  | > 100
CS(=O)(=O)CCNCc1coc(-c2ccc3ncnc(Nc4ccc(OCc5ccccc5)cc4)c3c2)c1 | 6.4 µM | > 25 µM | 2.45 µM | 7.66 µM | 4.44 µM | 9.11 µM | 3.98 µM | 13.4 µM | 2.91 µM | 7.27 µM | 4.15 µM | 9.13 µM | 4.81 | 12.9 | 5.65 µM | > 22 µM | 8.66 µM | > 25 µM | 4.86 | 11.6
COC(=O)c1ccc2[nH]c(O)c(C(=Nc3ccc(N(C)C(=O)CN4CCN(C)CC4)cc3)c3ccc4c(c3)OCO4)c2c1 | 1.06 µM | 6.05 µM | 0.144 µM | 2.56 µM | 0.538 µM | 1.8 µM | 0.26 µM | 4.07 µM | 0.36 µM | 1.52 µM | 0.415 µM | 1.82 µM | 0.232 | 2.93 | 1.09 µM | 4.12 µM | 0.774 µM | 7.34 µM | 0.655 | 2.83
